Data set [1] concerns the target Cannabinoid receptor 2 (Homo sapiens) (UniProt P34972). The experiment in a line: Displacement of [3H]CP-55,940 from recombinant human CB2 receptor expressed in HEK293 cells at >1 uM after 1 hr by scintillation counting method. The format is cell-based. (In general: Displacement assays read how much labelled ligand stays bound in the presence of the test substance.)

Data set [2] addresses T1, Fatty-acid amide hydrolase 1 (Rattus norvegicus, UniProt P97612).
T1 sequence (P97612 whole entry): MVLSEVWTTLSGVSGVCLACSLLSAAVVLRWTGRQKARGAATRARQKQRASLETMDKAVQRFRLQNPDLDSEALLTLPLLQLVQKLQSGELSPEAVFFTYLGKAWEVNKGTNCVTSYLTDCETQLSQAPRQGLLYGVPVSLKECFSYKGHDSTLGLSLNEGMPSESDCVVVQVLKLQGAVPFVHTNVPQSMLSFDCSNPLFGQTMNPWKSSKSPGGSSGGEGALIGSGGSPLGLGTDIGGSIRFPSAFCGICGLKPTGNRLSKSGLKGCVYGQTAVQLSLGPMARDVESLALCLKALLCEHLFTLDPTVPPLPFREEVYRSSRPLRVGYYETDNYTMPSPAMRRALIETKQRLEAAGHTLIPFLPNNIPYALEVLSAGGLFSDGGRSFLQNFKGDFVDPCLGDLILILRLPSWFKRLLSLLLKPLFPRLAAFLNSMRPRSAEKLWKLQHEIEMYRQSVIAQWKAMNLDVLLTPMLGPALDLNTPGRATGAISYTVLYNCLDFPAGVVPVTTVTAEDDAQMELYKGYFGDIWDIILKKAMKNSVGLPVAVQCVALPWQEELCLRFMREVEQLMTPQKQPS
The experiment in a line: Inhibition of rat FAAH using AAMCA as substrate by fluorescence assay.

Data set [3] addresses Cannabinoid receptor 1 (Rattus norvegicus, UniProt P20272). The data set is described as follows: Displacement of [3H]CP-55,940 from rat CB1 receptor at >1 uM after 1 hr by scintillation counting method.
For data set [4], the target named is T2, Monoacylglycerol lipase ABHD6 (Homo sapiens) (UniProt Q9BV23).
T2 sequence (whole entry): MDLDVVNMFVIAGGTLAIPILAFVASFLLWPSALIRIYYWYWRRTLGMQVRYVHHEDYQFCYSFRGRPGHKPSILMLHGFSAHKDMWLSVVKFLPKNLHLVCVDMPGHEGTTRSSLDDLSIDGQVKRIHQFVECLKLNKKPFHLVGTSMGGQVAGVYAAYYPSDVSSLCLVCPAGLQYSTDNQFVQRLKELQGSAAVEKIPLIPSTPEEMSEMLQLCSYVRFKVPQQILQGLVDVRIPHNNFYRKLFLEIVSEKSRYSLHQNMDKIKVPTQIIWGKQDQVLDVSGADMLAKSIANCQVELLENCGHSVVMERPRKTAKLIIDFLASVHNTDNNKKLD
The experiment in a line: Inhibition of human ABHD6 at >10 uM.

Data set [5] addresses Cannabinoid receptor 2 (Mus musculus) (UniProt P47936). The experiment in a line: Displacement of [3H]CP-55,940 from recombinant mouse CB2 receptor expressed in HEK293 cells at >1 uM after 1 hr by scintillation counting method. The format is cell-based.
Data set [6] can be described thus: Half life in human plasma at 200 uM by HPLC analysis. The class given is ADME, cell-free.
Data set [7] can be described thus: Half life in rat plasma at 200 uM by HPLC analysis. The class given is ADME, cell-free.
The test system of data set [8] is Mus musculus. The data set is described as follows: Anti-glaucoma activity in normotensive C57BL/6J mouse assessed as intraocular pressure at 3 mM administered as single topical treatment measured after 28 hrs by tonometry (reference value: […] +/- 1.1 mmHg). The format is functional.
A short description of data set [9]: Oral bioavailability in CD1 mouse at 10 mg/kg. The format is ADME, organism-based. As to conditions: in vivo.
Data set [10] is described as follows: Half life in mouse liver microsomes pretreated with compounds followed by NADPH addition by LC-MS/MS analysis. The format is ADME, Microsome. A general note: Microsomes from liver hold many membrane-bound enzymes, among them those of drug oxidation.
Data set [11] in a line: Half life in rat liver microsomes pretreated with compounds followed by NADPH addition by LC-MS/MS analysis. The class given is ADME, Microsome.
Data set [12] is described as follows: Drug uptake in CD1 mouse brain at 2 mg/kg, iv or 10 mg/kg, po. The format is ADME, organism-based. As to conditions: in vivo.
The nature of data set [13]: Mean residence time in CD1 mouse at 2 mg/kg, iv or 10 mg/kg, po. The format is ADME, organism-based. The following applies: in vivo.
The nature of data set [14]: Half life in human liver microsomes pretreated with compounds followed by NADPH addition by LC-MS/MS analysis. The format is ADME, Microsome.
Data set [15] can be described thus: Half life in mouse plasma at 200 uM by HPLC analysis. The class given is ADME, cell-free.

The source made the active and inactive calls. The calls are words filed in the database; no cut-off is given here.

Cannabinoid receptor 2 (Mus musculus), sequence (P47936 whole entry): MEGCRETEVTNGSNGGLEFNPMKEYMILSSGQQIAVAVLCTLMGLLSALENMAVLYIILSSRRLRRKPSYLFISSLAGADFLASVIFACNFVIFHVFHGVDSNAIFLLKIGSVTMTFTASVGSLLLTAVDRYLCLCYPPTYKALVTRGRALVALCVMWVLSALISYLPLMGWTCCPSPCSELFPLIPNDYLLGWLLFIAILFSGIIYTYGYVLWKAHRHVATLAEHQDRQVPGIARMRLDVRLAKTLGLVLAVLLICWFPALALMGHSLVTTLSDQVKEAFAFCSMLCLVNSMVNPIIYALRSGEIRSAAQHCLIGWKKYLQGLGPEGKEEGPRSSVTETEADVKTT
Cannabinoid receptor 1, sequence (P20272 whole entry): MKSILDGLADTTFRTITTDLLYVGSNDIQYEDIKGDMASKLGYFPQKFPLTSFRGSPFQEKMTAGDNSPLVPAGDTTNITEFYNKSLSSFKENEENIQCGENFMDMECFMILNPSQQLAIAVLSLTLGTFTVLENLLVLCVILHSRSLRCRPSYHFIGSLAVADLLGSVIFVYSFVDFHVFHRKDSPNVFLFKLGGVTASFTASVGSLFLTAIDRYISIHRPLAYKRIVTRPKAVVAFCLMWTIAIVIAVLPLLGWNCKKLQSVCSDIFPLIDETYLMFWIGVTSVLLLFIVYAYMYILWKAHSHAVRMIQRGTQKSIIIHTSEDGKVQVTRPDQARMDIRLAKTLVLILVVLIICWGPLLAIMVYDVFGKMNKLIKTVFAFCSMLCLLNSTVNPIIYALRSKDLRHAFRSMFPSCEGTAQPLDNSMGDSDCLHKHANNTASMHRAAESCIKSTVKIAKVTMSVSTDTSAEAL
Cannabinoid receptor 2 (Homo sapiens), sequence (P34972 whole entry): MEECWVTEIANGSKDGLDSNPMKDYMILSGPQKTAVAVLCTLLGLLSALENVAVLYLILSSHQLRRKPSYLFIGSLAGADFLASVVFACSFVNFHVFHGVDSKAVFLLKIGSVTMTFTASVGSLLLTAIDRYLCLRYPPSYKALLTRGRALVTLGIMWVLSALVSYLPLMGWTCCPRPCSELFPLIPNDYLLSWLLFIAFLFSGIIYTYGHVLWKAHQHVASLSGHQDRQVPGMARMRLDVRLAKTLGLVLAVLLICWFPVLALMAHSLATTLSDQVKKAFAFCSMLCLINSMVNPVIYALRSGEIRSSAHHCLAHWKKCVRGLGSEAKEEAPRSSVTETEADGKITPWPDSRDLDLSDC

A word on the IC50: it is the midpoint of a concentration-inhibition curve. A lower IC50 goes with greater potency. Consider `N#Cc1cccc(OC(=O)N2CCC(C(c3ccccc3)c3ccccc3)CC2)n1`, for which the outcome in [1] and in data set [5] was inactive. Besides, in data set [2], the 50% inhibitory concentration (IC50) was above 1 µM. Further, the Activity result in [3] is listed as “Not Active”. Also, the inhibition entry in [4] is “inactive”.

On to `O=C(Oc1ccccc1)N1CCN(C(c2ccccc2)c2ccccc2)CC1`, for which the result in data set [1] and in data set [5] was inactive. Also, the Activity result in [3] is listed as “Not Active”. Also, the inhibition entry in [4] was “inactive”.

As to `N#Cc1cccc(OC(=O)N2CCC(C(c3ccc(Cl)cc3)c3ccc(Cl)cc3)CC2)c1`, the outcome in [1] and in data set [5] was inactive. Also, the IC50 in data set [2] was above 1 µM. For the same molecule, the Activity result in data set [3] was “Not Active”. In addition, the inhibition result in [4] is “inactive”.

The term bioavailability denotes dose-corrected exposure relative to a reference, in per cent. Usually MRT stands for the average time that molecules of a dose stay in the body. With `N#Cc1cccc(OC(=O)N2CCC(C(c3ccccc3)c3ccccc3)CC2)c1`, the t1/2 in data set [6] is above 2 h; in data set [7], above 2 h; in data set [10], 0.333 h; in data set [11] it was 0.717 h; in data set [14] it was 2.03 h; in data set [15], above 2 h. For the same molecule, the outcome in data set [1] and in data set [5] was inactive. Further, the figures for the Activity in data set [8] and in data set [3] were 19.9 mmHg and “Not Active”, respectively. This molecule also showed a half-inhibitory concentration (IC50) in [2] above 1 µM. In addition, in [9], the bioavailability stood at 15%. Further, the inhibition entry in data set [4] is “inactive”. For the same molecule, the Drug uptake in data set [12] amounted to 65%. The molecule further had an MRT in data set [13] of 6 h.

For the molecule `N#Cc1ccc(F)c(OC(=O)N2CCC(C(c3ccccc3)c3ccccc3)CC2)c1`, the outcome in data set [1] and in data set [5] was inactive. For the same molecule, the IC50 in data set [2] was above 1 µM. For the same molecule, the Activity entry in data set [3] is listed as “Not Active”. Moreover, the inhibition result in data set [4] was “inactive”.

For `COc1cc(C#N)cc(OC(=O)N2CCC(C(c3ccccc3)c3ccccc3)CC2)c1`, the result in data set [1] and in data set [5] was inactive. In data set [2], this molecule displayed an IC50 above 1 µM. Moreover, in [3], the Activity result is listed as “Not Active”. In addition, in data set [4], the inhibition result was “inactive”.

With `N#Cc1cccc(OC(=O)N2CCC(S(=O)(=O)C(c3ccccc3)c3ccccc3)CC2)c1`, the result in [1] and in data set [5] was inactive. Besides, the Activity entry in data set [3] is reported as “Not Active”. In addition, in data set [4], the inhibition entry was “inactive”.

As for `N#Cc1cccc(OC(=O)N2CCC(OC(c3ccccc3)c3ccccc3)CC2)c1`, the outcome in data set [1] and in data set [5] was inactive. Moreover, the IC50 in [2] was above 1 µM. Moreover, the Activity entry in data set [3] is recorded as “Not Active”. Also, the inhibition entry in [4] was “inactive”.

Regarding `N#Cc1cccc(OC(=O)N2CCN(C3CCCCC3)CC2)c1`, the outcome in data set [1] and in data set [5] was inactive. Also, half-maximal inhibition in data set [2] (IC50) was put at 0.067 µM. In data set [3], the Activity result was “Not Active”. Besides, in [4], the inhibition entry is “inactive”.

Regarding `Cc1cc(C#N)cc(OC(=O)N2CCC(C(c3ccccc3)c3ccccc3)CC2)c1`, the result in data set [1] and in data set [5] was inactive. In [2], this molecule registered a concentration for half-maximal inhibition (IC50) above 1 µM. The Activity entry in data set [3] is “Not Active”. For the same molecule, in data set [4], the inhibition result is “inactive”.

With `N#Cc1cccc(OC(=O)N2CCN(C(c3ccccc3)c3cccnc3)CC2)c1` (stereo not drawn), the outcome in data set [1] and in data set [5] was inactive. Besides, in [2], the half-maximal inhibitory concentration (IC50) is above 1 µM. For the same molecule, the Activity entry in [3] is reported as “Not Active”. Further, the inhibition entry in [4] is “inactive”.

Regarding `N#Cc1ccnc(OC(=O)N2CCC(C(c3ccccc3)c3ccccc3)CC2)c1`, the outcome in data set [1] and in data set [5] was inactive. Also, the half-inhibitory concentration (IC50) in data set [2] is above 1 µM. Also, the Activity result in [3] is “Not Active”. Further, in data set [4], the inhibition result is “inactive”.

Take `N#Cc1cccc(OC(=O)N2CCN(C(c3ccc(F)cc3)c3ccc(F)cc3)CC2)c1`: the result in [1] and in data set [5] was inactive. In addition, the 50% inhibitory concentration (IC50) in data set [2] was above 1 µM. Moreover, the Activity result in data set [3] is on record as “Not Active”. The inhibition entry in data set [4] was “inactive”.

With `N#Cc1cc(F)cc(OC(=O)N2CCC(C(c3ccccc3)c3ccccc3)CC2)c1`, the outcome in data set [1] and in [5] was inactive. This molecule had a half-inhibitory concentration (IC50) in data set [2] above 1 µM. Besides, the Activity entry in data set [3] is “Not Active”. Besides, the inhibition result in data set [4] is “inactive”.

Turning to `N#Cc1cccc(OC(=O)N2CCN(C3CC3)CC2)c1`, the outcome in data set [1] and in [5] was inactive. For the same molecule, the midpoint of inhibition in [2], the IC50, lay at 0.063 µM. The Activity result in [3] is “Not Active”. Moreover, the inhibition entry in [4] is “inactive”.

Turning to `N#Cc1cccc(OC(=O)N2CCN(C3c4ccccc4-c4ccccc43)CC2)c1`, the result in data set [1] and in data set [5] was inactive. The molecule further showed an IC50 in data set [2] above 1 µM. Also, the Activity entry in data set [3] is “Not Active”. Also, the inhibition result in data set [4] was “inactive”.

Turning to `N#Cc1cccc(OC(=O)N2CCN(C(c3ccccc3)c3ccccc3)CC2)c1`, the result in data set [1] and in data set [5] was inactive. The molecule also registered an IC50 in data set [2] above 1 µM. Moreover, the Activity result in [3] is on record as “Not Active”. Besides, the inhibition result in [4] was “inactive”.

`CC(C)N1CCN(C(=O)Oc2cccc(C#N)c2)CC1`: the outcome in data set [1] and in data set [5] was inactive. This molecule displayed a half-maximal inhibitory concentration (IC50) in data set [2] of 0.068 µM. For the same molecule, the Activity entry in [3] is on record as “Not Active”. For the same molecule, the inhibition entry in data set [4] was “inactive”.

Turning to `N#Cc1cc(O)cc(OC(=O)N2CCC(C(c3ccccc3)c3ccccc3)CC2)c1`, the result in data set [1] and in data set [5] was inactive. In [2], this molecule registered an IC50 above 1 µM. Also, in data set [3], the Activity entry is reported as “Not Active”. Further, the inhibition result in data set [4] is “inactive”.

For the molecule `N#Cc1cccc(OC(=O)N2CCC(NC(c3ccccc3)c3ccccc3)CC2)c1`, the result in data set [1] and in [5] was inactive. This molecule also showed a half-maximal inhibitory concentration (IC50) in data set [2] above 1 µM. Further, in data set [3], the Activity result is given as “Not Active”. For the same molecule, the inhibition entry in [4] is “inactive”.

These data come from ChEMBL document CHEMBL4382224, “Synthesis and evaluation of potent and selective MGL inhibitors as a glaucoma treatment” (Bioorg Med Chem, 2019).
